Columns and labels:
SARS-CoV-2 spike RBD = SARS-CoV-2 spike RBD (Severe acute respiratory syndrome coronavirus 2, UniProt P0DTC2); experiment: biochemical; format: binding
A549 = experiment: MTT cytotoxicity, A549; format: cell-based; settings: Homo sapiens, A549, 72 h, read-out: IC50 A549
human ACE2 = human ACE2 (Homo sapiens, UniProt Q9BYF1); experiment: biochemical; format: binding
[1] = system: SARS-CoV-2 spike pseudovirus; format: cell-based
T47D = experiment: MTT cytotoxicity, T47D; settings: for IC50: Homo sapiens, T47D, 72 h, read-out: IC50 T47D; for cytotoxic effect, fold more potent than berberine: T47D cells, versus positive control berberine
MCF-7 = experiment: MTT cytotoxicity, MCF-7; settings: for IC50: Homo sapiens, MCF7, 72 h, read-out: IC50 MCF-7
MDA-MB-231 = experiment: MTT cytotoxicity, MDA-MB-231; format: cell-based; settings: Homo sapiens, MDA-MB-231, 72 h, read-out: IC50 MDA-MB-231
HEK-293T-ACE2h cells = settings: human
[2] = system: MCF-7, T47D, MDA-MB-231, and A549; experiment: MTT cytotoxicity, range stated over four cancer cell lines; format: cell-based; settings: Homo sapiens, 72 h, read-out: IC50 values ranging over four cancer cell lines

Chain of human ACE2 (Q9BYF1 18-805): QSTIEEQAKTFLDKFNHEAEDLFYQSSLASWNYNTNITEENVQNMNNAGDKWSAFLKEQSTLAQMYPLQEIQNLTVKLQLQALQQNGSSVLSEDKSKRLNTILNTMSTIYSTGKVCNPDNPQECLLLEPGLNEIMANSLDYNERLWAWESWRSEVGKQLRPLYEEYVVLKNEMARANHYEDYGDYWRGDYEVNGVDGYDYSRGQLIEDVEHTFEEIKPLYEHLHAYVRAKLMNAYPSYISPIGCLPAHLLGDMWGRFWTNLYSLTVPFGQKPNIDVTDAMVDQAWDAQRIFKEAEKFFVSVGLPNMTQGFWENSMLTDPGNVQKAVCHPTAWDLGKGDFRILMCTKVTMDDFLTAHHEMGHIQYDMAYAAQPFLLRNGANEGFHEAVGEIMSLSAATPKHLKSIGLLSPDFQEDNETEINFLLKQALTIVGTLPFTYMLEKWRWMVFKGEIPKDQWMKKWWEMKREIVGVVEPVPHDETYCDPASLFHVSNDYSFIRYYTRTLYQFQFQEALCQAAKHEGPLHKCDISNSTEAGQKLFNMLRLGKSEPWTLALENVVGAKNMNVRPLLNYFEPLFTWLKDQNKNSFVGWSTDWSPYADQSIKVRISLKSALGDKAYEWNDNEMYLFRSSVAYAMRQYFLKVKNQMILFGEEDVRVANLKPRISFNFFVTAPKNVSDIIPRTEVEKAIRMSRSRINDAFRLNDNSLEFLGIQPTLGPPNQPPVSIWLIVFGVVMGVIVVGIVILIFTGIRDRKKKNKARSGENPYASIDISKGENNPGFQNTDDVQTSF

Clc1ccc2nc(-c3ccccc3)c(-c3ccccc3)nc2c1 [4ad, 6-Chloro-2,3-diphenylquinoxaline]
Kd (SARS-CoV-2 spike RBD): 8.16 ± 1.34 µM
IC50 (A549): > 50 µM
Kd (human ACE2): 4.02 ± 2.03 µM
SI (selectivity index, TC50/IC50) [1]: >23.49
IC50 (T47D): > 50 µM
IC50 (MCF-7): > 50 µM
IC50 (MDA-MB-231): > 50 µM
CC0 (maximum nontoxic concentration) (HEK-293T-ACE2h cells): >25 µM
TC50 (concentration that caused 50% cells' death) (HEK-293T-ACE2h cells): >500 µM

COC(=O)c1ccc2nc(-c3ccccc3)c(-c3ccccc3)nc2c1 [4af, Methyl 2,3-diphenylquinoxaline-6-carboxylate]
IC50 (A549): > 50 µM
IC50 (T47D): > 50 µM
IC50 (MCF-7): > 50 µM
IC50 (MDA-MB-231): > 50 µM
CC0 (maximum nontoxic concentration) (HEK-293T-ACE2h cells): 100 µM
TC50 (concentration that caused 50% cells' death) (HEK-293T-ACE2h cells): >100 µM

COc1ccc2cc3[n+](cc2c1OC)CCc1cc2c(cc1-3)OCO2 [berberine, reference compound]
IC50 (A549): 5.22 ± 0.44 µM
IC50 (T47D): 26.7 ± 2.45 µM
IC50 (MCF-7): 14.3 ± 1.44 µM
IC50 (MDA-MB-231): 18 ± 1.91 µM

c1ccc(-c2nc3ccccc3nc2-c2ccc3ccccc3c2)cc1 [4pa, 2-(Naphthalen-2-yl)-3-phenylquinoxaline]
IC50 (A549): > 50 µM
IC50 (T47D): > 50 µM
IC50 (MCF-7): > 50 µM
IC50 (MDA-MB-231): > 50 µM
CC0 (maximum nontoxic concentration) (HEK-293T-ACE2h cells): >25 µM
TC50 (concentration that caused 50% cells' death) (HEK-293T-ACE2h cells): >250 µM

COc1ccc2nc(-c3ccccc3)c(-c3ccccc3)nc2c1 [4ac, 6-Methoxy-2,3-diphenylquinoxaline]
IC50 (A549): > 50 µM
IC50 (T47D): > 50 µM
IC50 (MCF-7): > 50 µM
IC50 (MDA-MB-231): > 50 µM
CC0 (maximum nontoxic concentration) (HEK-293T-ACE2h cells): 50 µM
TC50 (concentration that caused 50% cells' death) (HEK-293T-ACE2h cells): 116.03 ± 4.28 µM

N#Cc1ccc2nc(-c3ccccc3)c(-c3ccccc3)nc2c1 [4ae, 2,3-Diphenylquinoxaline-6-carbonitrile]
IC50 (A549): > 50 µM
IC50 (T47D): > 50 µM
IC50 (MCF-7): > 50 µM
IC50 (MDA-MB-231): > 50 µM
CC0 (maximum nontoxic concentration) (HEK-293T-ACE2h cells): 125 µM
TC50 (concentration that caused 50% cells' death) (HEK-293T-ACE2h cells): 303.27 ± 9.51 µM

Brc1ccc(-c2nc3ccccc3nc2-c2ccccc2)cc1 [4ja, 2-(4-Bromophenyl)-3-phenylquinoxaline]
CC0 (maximum nontoxic concentration) (HEK-293T-ACE2h cells): 25 µM
TC50 (concentration that caused 50% cells' death) (HEK-293T-ACE2h cells): >100 µM

Fc1ccc(-c2nc3ccccc3nc2-c2ccccc2)cc1 [4ka, 2-(4-Fluorophenyl)-3-phenylquinoxaline]
CC0 (maximum nontoxic concentration) (HEK-293T-ACE2h cells): 25 µM
TC50 (concentration that caused 50% cells' death) (HEK-293T-ACE2h cells): >100 µM

c1ccc(-c2nc3ccccc3nc2-c2ccsc2)cc1 [4ra, 2-Phenyl-3-(thiophen-3-yl)quinoxaline]
IC50 (A549): > 50 µM
IC50 (T47D): > 50 µM
IC50 (MCF-7): > 50 µM
IC50 (MDA-MB-231): > 50 µM
CC0 (maximum nontoxic concentration) (HEK-293T-ACE2h cells): 62.5 µM
TC50 (concentration that caused 50% cells' death) (HEK-293T-ACE2h cells): 337.06 ± 15.49 µM

COc1ccc(-c2nc3ccccc3nc2-c2ccccc2)cc1 [4ca, 2-(4-Methoxyphenyl)-3-phenylquinoxaline]
Kd (SARS-CoV-2 spike RBD): 15.5 ± 1.14 µM
IC50 (A549): > 50 µM
Kd (human ACE2): 3.67 ± 0.66 µM
SI (selectivity index, TC50/IC50) [1]: 14.05
IC50 (T47D): > 50 µM
IC50 (MCF-7): > 50 µM
IC50 (MDA-MB-231): 48.8 ± 1.01 µM
CC0 (maximum nontoxic concentration) (HEK-293T-ACE2h cells): 125 µM
TC50 (concentration that caused 50% cells' death) (HEK-293T-ACE2h cells): 276.90 ± 13.45 µM

Cc1ccc(-c2nc3ccccc3nc2-c2ccccc2)cc1 [4ba, 2-Phenyl-3-(p-tolyl)quinoxaline]
IC50 (A549): 24.1 ± 1.11 µM
IC50 (T47D): 9.76 ± 1.3 µM
IC50 [2]: 6.25 to 28.6 µM
IC50 (MCF-7): 15.7 ± 1.18 µM
IC50 (MDA-MB-231): 21.4 ± 1.19 µM
CC0 (maximum nontoxic concentration) (HEK-293T-ACE2h cells): 125 µM
TC50 (concentration that caused 50% cells' death) (HEK-293T-ACE2h cells): 271.67 ± 13.00 µM

c1ccc(-c2nc3cc4ccccc4cc3nc2-c2ccccc2)cc1 [4ag, 2,3-Diphenylbenzo[g]quinoxaline]
IC50 (A549): 44.5 ± 3.55 µM
IC50 (T47D): 20.5 ± 1.64 µM
IC50 (MCF-7): > 50 µM
IC50 (MDA-MB-231): 45 ± 1.57 µM
CC0 (maximum nontoxic concentration) (HEK-293T-ACE2h cells): 50 µM
TC50 (concentration that caused 50% cells' death) (HEK-293T-ACE2h cells): 107.20 ± 1.64 µM

Clc1ccc(-c2nc3ccccc3nc2-c2ccccc2)cc1 [4ia, 2-(4-Chlorophenyl)-3-phenylquinoxaline]
IC50 (A549): 18.6 ± 0.25 µM
IC50 (T47D): 6.25 ± 0.73 µM
cytotoxic effect, fold more potent than berberine (T47D): 4.27 fold
IC50 [2]: 6.25 to 28.6 µM
IC50 (MCF-7): 7.3 ± 1.1 µM
cytotoxic effect, fold more potent than berberine (MCF-7; MCF-7 cells, versus positive control berberine): 1.96 fold
IC50 (MDA-MB-231): 17.8 ± 0.69 µM
CC0 (maximum nontoxic concentration) (HEK-293T-ACE2h cells): 25 µM
TC50 (concentration that caused 50% cells' death) (HEK-293T-ACE2h cells): 115.20 ± 9.72 µM

C=CCc1cc(-c2cc(CC=C)c3oc(=O)n(Cc4nnc(-c5ccc(OC)cc5)o4)c3c2)c2oc(=O)n(Cc3nnc(-c4ccc(OC)cc4)o3)c2c1 [6p, 5′,7-Diallyl-3,3′-bis((5-(4-methoxyphenyl)-1,3,4-oxadiazol-2-yl)methyl)-[5,7′-bibenzo[d]oxazole]-2,2′(3H,3′H)-dione, reference compound]
SI (selectivity index, TC50/IC50) [1]: >8.40
CC0 (maximum nontoxic concentration) (HEK-293T-ACE2h cells): >100 µM
TC50 (concentration that caused 50% cells' death) (HEK-293T-ACE2h cells): >100 µM

Cc1ccc2nc(-c3ccccc3)c(-c3ccccc3)nc2c1 [4ab, 6-Methyl-2,3-diphenylquinoxaline]
IC50 (A549): 19.7 ± 1.28 µM
IC50 (T47D): 6.77 ± 0.57 µM
cytotoxic effect, fold more potent than berberine (T47D): 3.94 fold
IC50 [2]: 6.25 to 28.6 µM
IC50 (MCF-7): 10 ± 0.55 µM
IC50 (MDA-MB-231): 18.2 ± 1.34 µM
CC0 (maximum nontoxic concentration) (HEK-293T-ACE2h cells): 62.5 µM
TC50 (concentration that caused 50% cells' death) (HEK-293T-ACE2h cells): 288.40 ± 17.65 µM

c1ccc(-c2nc3ccccc3nc2-c2ccccc2)cc1 [4aa, 2,3-Diphenylquinoxaline]
Kd (SARS-CoV-2 spike RBD): 1000 ± 761 µM
IC50 (A549): 26.3 ± 1.96 µM
Kd (human ACE2): 5890 ± 1670 µM
IC50 (T47D): 11.4 ± 1.17 µM
IC50 [2]: 6.25 to 28.6 µM
IC50 (MCF-7): 16.7 ± 1.34 µM
IC50 (MDA-MB-231): 28.6 ± 1.85 µM
CC0 (maximum nontoxic concentration) (HEK-293T-ACE2h cells): >250 µM
TC50 (concentration that caused 50% cells' death) (HEK-293T-ACE2h cells): >25 µM

c1ccc(-c2ccc(-c3nc4ccccc4nc3-c3ccccc3)cc2)cc1 [4ha, 2-([1,1′-Biphenyl]-4-yl)-3-phenylquinoxaline]
Kd (SARS-CoV-2 spike RBD): 135 ± 17.7 µM
IC50 (A549): > 50 µM
Kd (human ACE2): 238 ± 57.3 µM
SI (selectivity index, TC50/IC50) [1]: >3.50
IC50 (T47D): > 50 µM
IC50 (MCF-7): > 50 µM
IC50 (MDA-MB-231): > 50 µM
CC0 (maximum nontoxic concentration) (HEK-293T-ACE2h cells): >250 µM
TC50 (concentration that caused 50% cells' death) (HEK-293T-ACE2h cells): >500 µM
